Numbers after ± are expanded uncertainties.
Assays:
[1] = xn = mol fraction of the nth substance listed; conditions: 100 kPa, Liquid, x2 = 0; for viscosity: Falling or rolling sphere viscometry; for mass density: Vibrating tube method
[2] = for electrical conductivity / viscosity / mass density: 100 kPa, Liquid; for electrical conductivity: Alternating current cell with electrodes; for viscosity: Falling or rolling sphere viscometry; for mass density: Vibrating tube method; for surface tension liquid-gas: Wilhelmy plate

CC#N [acetonitrile] + CCCCn1cc[n+](C)c1C.N#C[S-]
viscosity ([1]; 288.15 K): 0.376 ± 0.005 mPa·s
mass density ([1]; 288.15 K): 787.58 ± 2 kg/m3
viscosity ([1]; 293.15 K): 0.357 ± 0.005 mPa·s
mass density ([1]; 293.15 K): 781.89 ± 2 kg/m3
viscosity ([1]; 298.15 K): 0.339 ± 0.005 mPa·s
mass density ([1]; 298.15 K): 776.52 ± 2 kg/m3
viscosity ([1]; 303.15 K): 0.324 ± 0.004 mPa·s
mass density ([1]; 303.15 K): 771.12 ± 2 kg/m3
viscosity ([1]; 308.15 K): 0.309 ± 0.004 mPa·s
mass density ([1]; 308.15 K): 765.83 ± 2 kg/m3
viscosity ([1]; 313.15 K): 0.295 ± 0.004 mPa·s
mass density ([1]; 313.15 K): 760.36 ± 2 kg/m3
viscosity ([1]; 318.15 K): 0.283 ± 0.004 mPa·s
mass density ([1]; 318.15 K): 755.14 ± 2 kg/m3
viscosity ([1]; 323.15 K): 0.272 ± 0.004 mPa·s
mass density ([1]; 323.15 K): 749.44 ± 2 kg/m3

CCC[n+]1ccn(C)c1C.N#C[S-] [1,2-dimethyl-3-propylimidazolium thiocyanate]
electrical conductivity ([2]; 288.15 K): 0.255 ± 0.026 S/m
viscosity ([2]; 288.15 K): 316.5 ± 20 mPa·s
mass density ([2]; 288.15 K): 1099.81 ± 2.9 kg/m3
electrical conductivity ([2]; 293.15 K): 0.361 ± 0.036 S/m
viscosity ([2]; 293.15 K): 215.8 ± 11 mPa·s
mass density ([2]; 293.15 K): 1096.75 ± 2.9 kg/m3
surface tension liquid-gas ([2]; 298.15 K): 48.8 ± 0.8 mN/m
electrical conductivity ([2]; 298.15 K): 0.459 ± 0.046 S/m
viscosity ([2]; 298.15 K): 151.9 ± 6.1 mPa·s
mass density ([2]; 298.15 K): 1093.67 ± 2.9 kg/m3
electrical conductivity ([2]; 303.15 K): 0.583 ± 0.058 S/m
viscosity ([2]; 303.15 K): 110.1 ± 3.4 mPa·s
mass density ([2]; 303.15 K): 1090.61 ± 2.9 kg/m3
electrical conductivity ([2]; 308.15 K): 0.733 ± 0.073 S/m
viscosity ([2]; 308.15 K): 83.42 ± 2 mPa·s
mass density ([2]; 308.15 K): 1087.57 ± 2.9 kg/m3
electrical conductivity ([2]; 313.15 K): 0.905 ± 0.091 S/m
viscosity ([2]; 313.15 K): 64.78 ± 1.3 mPa·s
mass density ([2]; 313.15 K): 1084.55 ± 2.9 kg/m3
electrical conductivity ([2]; 318.15 K): 1.1 ± 0.11 S/m
viscosity ([2]; 318.15 K): 50.96 ± 0.92 mPa·s
mass density ([2]; 318.15 K): 1081.54 ± 2.9 kg/m3
electrical conductivity ([2]; 323.15 K): 1.33 ± 0.13 S/m
viscosity ([2]; 323.15 K): 41.55 ± 0.81 mPa·s
mass density ([2]; 323.15 K): 1078.54 ± 2.8 kg/m3

CC#N [acetonitrile]
viscosity ([2]; 288.15 K): 0.376 ± 0.005 mPa·s
mass density ([2]; 288.15 K): 787.58 ± 2 kg/m3
viscosity ([2]; 293.15 K): 0.357 ± 0.005 mPa·s
mass density ([2]; 293.15 K): 781.89 ± 2 kg/m3
viscosity ([2]; 298.15 K): 0.339 ± 0.005 mPa·s
mass density ([2]; 298.15 K): 776.52 ± 2 kg/m3
viscosity ([2]; 303.15 K): 0.324 ± 0.004 mPa·s
mass density ([2]; 303.15 K): 771.12 ± 2 kg/m3
viscosity ([2]; 308.15 K): 0.309 ± 0.004 mPa·s
mass density ([2]; 308.15 K): 765.83 ± 2 kg/m3
viscosity ([2]; 313.15 K): 0.295 ± 0.004 mPa·s
mass density ([2]; 313.15 K): 760.36 ± 2 kg/m3
viscosity ([2]; 318.15 K): 0.283 ± 0.004 mPa·s
mass density ([2]; 318.15 K): 755.14 ± 2 kg/m3
viscosity ([2]; 323.15 K): 0.272 ± 0.004 mPa·s
mass density ([2]; 323.15 K): 749.44 ± 2 kg/m3

CCCCn1cc[n+](C)c1C.N#C[S-] [1-butyl-2,3-dimethylimidazolium thiocyanate]
electrical conductivity ([2]; 288.15 K): 0.106 ± 0.011 S/m
viscosity ([2]; 288.15 K): 452.7 ± 34 mPa·s
mass density ([2]; 288.15 K): 1084.2 ± 2.9 kg/m3
electrical conductivity ([2]; 293.15 K): 0.153 ± 0.015 S/m
viscosity ([2]; 293.15 K): 311.3 ± 20 mPa·s
mass density ([2]; 293.15 K): 1081.11 ± 2.9 kg/m3
surface tension liquid-gas ([2]; 298.15 K): 44.8 ± 0.7 mN/m
electrical conductivity ([2]; 298.15 K): 0.217 ± 0.022 S/m
viscosity ([2]; 298.15 K): 218 ± 11 mPa·s
mass density ([2]; 298.15 K): 1078.2 ± 2.8 kg/m3
electrical conductivity ([2]; 303.15 K): 0.293 ± 0.029 S/m
viscosity ([2]; 303.15 K): 157.9 ± 6.6 mPa·s
mass density ([2]; 303.15 K): 1075.18 ± 2.8 kg/m3
electrical conductivity ([2]; 308.15 K): 0.386 ± 0.039 S/m
viscosity ([2]; 308.15 K): 118.9 ± 3.9 mPa·s
mass density ([2]; 308.15 K): 1072.16 ± 2.8 kg/m3
electrical conductivity ([2]; 313.15 K): 0.496 ± 0.05 S/m
viscosity ([2]; 313.15 K): 90.46 ± 2.3 mPa·s
mass density ([2]; 313.15 K): 1069.15 ± 2.8 kg/m3
electrical conductivity ([2]; 318.15 K): 0.627 ± 0.063 S/m
viscosity ([2]; 318.15 K): 72.04 ± 1.5 mPa·s
mass density ([2]; 318.15 K): 1066.16 ± 2.8 kg/m3
electrical conductivity ([2]; 323.15 K): 0.774 ± 0.077 S/m
viscosity ([2]; 323.15 K): 57.11 ± 1.1 mPa·s
mass density ([2]; 323.15 K): 1063.2 ± 2.8 kg/m3

CC#N [acetonitrile] + CCC[n+]1ccn(C)c1C.N#C[S-]
viscosity ([1]; 288.15 K): 0.376 ± 0.005 mPa·s
mass density ([1]; 288.15 K): 787.58 ± 2 kg/m3
viscosity ([1]; 293.15 K): 0.357 ± 0.005 mPa·s
mass density ([1]; 293.15 K): 781.89 ± 2 kg/m3
viscosity ([1]; 298.15 K): 0.339 ± 0.005 mPa·s
mass density ([1]; 298.15 K): 776.52 ± 2 kg/m3
viscosity ([1]; 303.15 K): 0.324 ± 0.004 mPa·s
mass density ([1]; 303.15 K): 771.12 ± 2 kg/m3
viscosity ([1]; 308.15 K): 0.309 ± 0.004 mPa·s
mass density ([1]; 308.15 K): 765.83 ± 2 kg/m3
viscosity ([1]; 313.15 K): 0.295 ± 0.004 mPa·s
mass density ([1]; 313.15 K): 760.36 ± 2 kg/m3
viscosity ([1]; 318.15 K): 0.283 ± 0.004 mPa·s
mass density ([1]; 318.15 K): 755.14 ± 2 kg/m3
viscosity ([1]; 323.15 K): 0.272 ± 0.004 mPa·s
mass density ([1]; 323.15 K): 749.44 ± 2 kg/m3
